Reference: patent publication US20090137613A1, “PHARMACEUTICALLY ACCEPTABLE SALTS AND POLYMORPHIC FORMS” (priority 2006, published 2009)
Counter-ions that a name gives are not always drawn. Like-named read-outs stand apart in the source and are kept apart here.

Tests used:
[1] = cited from earlier work; for bioavailability: oral, valacyclovir in comparison to acyclovir
[2] = Dynamic vapour sorption (DVS), moisture sorption / hygroscopicity; format: physicochemical
Source text: DVS is a measure of the water vapour or moisture sorption of a material under varying conditions of humidity and it can be used as a measure of the hygroscopicity of a given material. The DVS data as described herein was obtained using the Dynamic Vapour Sorption (DVS) methodology developed by Surface Measurement Systems (SMS) Ltd. for the rapid quantitative analysis of the water sorption properties of solids including pharmaceutical materials. The Surface Measurement Systems DVS instrument rapidly measures uptake and loss of moisture by flowing a carrier gas at a specified relative humidity (RH) over a sample (1 mg-1.5 g) suspended from the weighing mechanism of a Cahn D-200 ultra sensitive recording microbalance. This particular microbalance is used because it is capable of measuring changes in sample mass lower than 1 part in 10 million and provides the long-term stability as required for the accurate measurement of vapour sorption phenomena, which may take from minutes to days to complete depending upon the sample size and material. Indeed, a major factor in determining the water sorption behaviour of materials is the need to establish rapid water sorption equilibrium, therefore the DVS instrument allows sorption behaviour to be accurately determined on very small sample sizes (typically 10 mg), thus minimising the equilibration time required. One of the most critical factors for any instrumentation used for investigating moisture sorption behaviour is the temperature stability of the measurement system. The main DVS instrument systems as used herein are, therefore, housed in a precisely controlled constant temperature incubator with a temperature stability of ±0.1° C. This ensures very good instrument baseline stability as well as accurate control of the relative humidity generation. The required relative humidities are generated by accurately mixing dry and saturated vapour gas flows in the correct proportions using mass flow controllers. Humidity and temperature probes are situated just below the sample and reference holders to give independent verification of system performance. The microbalance mechanism is very sensitive to sorption and desorption of moisture. A constant dry gas purge to the balance head is, therefore, provided to give the best performance in terms of baseline stability. The purge flow is manually controlled such that in the event of a power failure, condensation of moisture in the balance head cannot occur. The DVS instrument is fully automated.

[3] = Thermogravimetric analysis (TGA), thermally induced weight loss / thermal stability; format: physicochemical
Source text: Polymorph I of valacyclovir mesylate according to the present invention is further characterised by a typical TGA thermograph, or substantially the same TGA thermograph, as shown in FIG. 3. As used herein, the term “TGA” refers to thermogravimetric analysis. […] TGA is restricted in transitions that involve either a gain or a loss of mass and it is most commonly used to study desolvation processes and compound decomposition.
FIG. 3: Typical TGA thermograph of polymorph I of valacyclovir mesylate obtained by using thermogravimetric analysis (TGA) using TGA 7 manufactured by Perkin-Elmer. The experiments were done under flow of nitrogen (35 ml/min) and heating rate was 10° C./min.

[4] = cited from earlier work
[5] = at about 90% relative humidity (RH)
[6] = temperature range of about 30-175° C.

Nc1nc2c(ncn2COCCO)c(=O)[nH]1 [Acyclovir, 9-[(2-hydroxyethoxy)methyl]guanine]
bioavailability [1]: low bioavailability

CC(C)[C@H](N)C(=O)OCCOCn1cnc2c(=O)[nH]c(N)nc21 [Polymorph I of valacyclovir base, L-valine 2-[(2-amino-1,6-dihydro-6-oxo-9H-purin-9-yl)methoxy]ethyl ester]
dynamic vapour sorption (DVS) [2, 5]: about 0.4% | stable to a temperature of (thermal stability confirmed by TGA) ([3]; solid form as prepared): about 200 °C | TGA weight loss ([3]; temperature range of about 200° C.): no TGA weight loss

CC(C)[C@H](N)C(=O)OCCOCn1cnc2c(=O)[nH]c(N)nc21 [valacyclovir hydrochloride]
solubility in water [4]: moderately soluble

CC(C)[C@H](N)C(=O)OCCOCn1cnc2c(=O)[nH]c(N)nc21 [valacyclovir, L-valine 2-[(2-amino-1,6-dihydro-6-oxo-9H-purin-9-yl)methoxy]ethyl ester]
absorption from the gastrointestinal tract ([1]; after oral administration): rapidly absorbed | bioavailability [1]: improved bioavailability

valacyclovir citrate [Polymorph I of valacyclovir citrate]
stable to a temperature of (thermal stability confirmed by TGA) ([3]; solid form as prepared): about 180 °C | TGA weight loss ([3]; temperature range of about 30-80° C.): about 2.6%

valacyclovir fumarate [Polymorph I of valacyclovir fumarate]
stable to a temperature of (thermal stability confirmed by TGA) ([3]; solid form as prepared): about 200 °C | TGA weight loss ([3]; temperature range of about 30-100° C.): about 0.9%

valacyclovir fumarate [Polymorph II of valacyclovir fumarate]
stable to a temperature of (thermal stability confirmed by TGA) [3]: about 150 °C | TGA weight loss ([3]; temperature range of about 30-140° C.): about 9.2%

valacyclovir maleate [Polymorph I of valacyclovir maleate]
stable to a temperature of (thermal stability confirmed by TGA) ([3]; solid form as prepared): about 160 °C | TGA weight loss ([3]; temperature range of about 30-150° C.): about 5.3%

valacyclovir mesylate [Polymorph I of valacyclovir mesylate]
dynamic vapour sorption (DVS) [2, 5]: about 3.6% | stable to a temperature of (thermal stability confirmed by TGA) ([3]; solid form as prepared): about 200 °C | TGA weight loss ([3]; temperature range of about 30-165° C.): about 2.5%

valacyclovir phosphate [Polymorph I of valacyclovir phosphate]
dynamic vapour sorption (DVS) ([2]; at about 80% RH): about 1.0% | dynamic vapour sorption (DVS) [2, 5]: about 5.1% | stable to a temperature of (thermal stability confirmed by TGA) ([3]; solid form as prepared): about 200 °C | TGA weight loss ([3]; temperature range of about 30-200° C.): no TGA weight loss

valacyclovir phosphate [Polymorph II of valacyclovir phosphate]
TGA weight loss [3, 6]: about 6.8%

valacyclovir phosphate [Polymorph III of valacyclovir phosphate]
dynamic vapour sorption (DVS) [2, 5]: about 5.2% | TGA weight loss [3, 6]: about 2.1%
